Measurements reported in paper PMC13696528, “Combined Immune‐Peptide Nanofiber with HSP70/AKT/mTOR Axis Blockade Enhances Photothermal Immunotherapy, Inhibiting Tumor Growth and Recurrence” (Advanced Science, 2026).

Columns and labels:
[1] = test system: CT26 cells; assay: Colony formation assay after PTIT; format: cell-based, mouse; settings: PSP@IR-CF3 + NIR plus VER-155008 (0.2 μM) or Rapa (10 nM), 14 days, n = 3
Experimental: CT26 cells were harvested and prepared as a single-cell suspension. […] Following the indicated treatments, cells were cultured under standard conditions (37 °C, 5% CO₂) for 14 days until visible colonies had formed.
The culture medium was then removed, and the cells were gently washed with PBS. Colonies were fixed with 4% paraformaldehyde for 10–15 min and stained with crystal violet for 10–20 min. Excess dye was removed by washing with distilled water, and the plates were air-dried. Colonies were quantified using ImageJ software (RRID:SCR_003070).

[2] = test system: CT26-Luc tumor-bearing mice; assay: In vivo recurrence study with HSP70 inhibition; set-up: species or system mouse; settings: combined with PTIT (PSP@IR-CF3 + NIR), VER-155008 20 mg kg⁻¹ d⁻¹ i.p. 7 days, n = 10, 28 days
Experimental: CT26-Luc cells were cultured under standard conditions and harvested during the logarithmic growth phase. BALB/c mice were subcutaneously inoculated with CT26-Luc cells to establish tumor-bearing models.
In the combination group, the HSP70 inhibitor VER-155008 was administered via intraperitoneal injection at a dose of 20 mg kg⁻¹ d⁻¹ for 7 consecutive days beginning immediately after NIR irradiation. Tumor growth was monitored regularly, and mice were followed for 28 days after treatment to evaluate tumor recurrence. Tumor recurrence was defined as the reappearance of measurable tumor growth at the original treatment site following initial tumor regression.

| SMILES | colony formation and clonogenic recovery after PTIT [1] | recurrent tumors [2] |
| --- | --- | --- |
| CO[C@H]1C[C@@H]2CC[C@@H](C)[C@@](O)(O2)C(=O)C(=O)N2CCCC[C@H]2C(=O)O[C@H]([C@H](C)C[C@@H]2CC[C@@H](O)[C@H](OC)C2)CC(=O)[C@H](C)/C=C(\C)[C@@H](O)[C@@H](OC)C(=O)[C@H](C)C[C@H](C)/C=C/C=C/C=C/1C [Rapamycin, rapamycin] | reduced colony formation and impaired clonogenic recovery | – |
| N#Cc1ccc(COC[C@H]2O[C@@H](n3c(NCc4ccc(Cl)c(Cl)c4)nc4c(N)ncnc43)[C@H](O)[C@@H]2O)cc1 [VER-155008] | reduced colony formation and impaired clonogenic recovery | no recurrent tumors |
